Experimental findings from patent publication US9029589B2, “Phenyl alkyl carbamate derivative compound and pharmaceutical composition containing the same” (Bio-Pharm Solutions Co., Ltd., priority 2011, dated 2015) are described below.

Holding throughout (assay type): in vivo
What all share (details): intraperitoneal, at time of maximum effect, 50% of muscle relaxation activity vs vehicle only (100%)

In assay [1] the test system is male mice (ICR). Nature of the assay: Muscle relaxation activity by grip strength (forelimbs). The procedure:
(§1) For testing, male mice (ICR) were purchased from ORIENT BIO INC. (Korea), divided into several groups with 6 mice in each group, and were adapted for 4-5 days. The mice having the weight ranging from 19 g to 26 g were employed for the test. The pharmacological effect of the test compounds on muscle relaxation was evaluated by Rotarod test, grip strength test, and muscular force (wire hang) test. All mice were adapted to the test environment at one hour before starting the tests. The pharmacological effects of all the test compounds were evaluated by administration through peritoneal cavity of the mice (10 ul/g, bw).
A grip strength test using the test animals' forelimbs was performed using an instrument equipped with triangle ring and designed so as to easily grip with the forelimbs of experimental animals, manufactured from Ugo Basile Inc. (Ugo Basile, Model 47106, Italy). The test was conducted before and after administration of the compounds to evaluate the effects thereof. […] The mouse was made to grip the rod with its forelimbs, and its tail was pulled, where the force at which the mouse detached from the rod was recorded. The instrument indicated the force in grams. All of the mice were given 3 opportunities for test, and the 3 highest values among the test opportunities were selected and the mean value was used as the test result. This experimentation was conducted according to the method described in the reference, ‘Nevins et al. (1993) Quantitative grip strength assessment as a means of evaluating muscle relaxation in mice. Psychopharmacol. 110: 92-96’.
(§2) The results of muscle relaxation activity of the phenyl alkyl carbamate derivative compounds measured in above Experimental Examples 1 to 3 are shown in following Table 3.

Assay [2] relates to male mice (ICR). Briefly: Muscle relaxation activity by wire hang. As for the experimental part:
as §1
This experimentation was conducted using a metal wire of 30 cm in length, which was suspended between two pillars at a height of about 40 cm from the bottom covered with a soft pad. […] Each mouse was made to grip the wire using two forelimbs, and the elapse time before the mouse fell off from the wire to the pad on the bottom was recorded in seconds. Each mouse was given 5 opportunities for this test at an interval of 2 minutes period. The highest 3 records among the test opportunities were selected and the mean value was used as the test result. This experimentation was conducted according to the method described in the reference, ‘Jacqueline N. Crawley (1999) Behavioral phenotyping of transgenic and knockout mice: experimental design and evaluation of general health, sensory functions, motor abilities, and specific behavioral tests. Brain Res. 835: 18-26’.
as §2

Assay [3] relates to male mice (ICR). Nature of the assay: Muscle relaxation activity by residence time on a rotarod rotating at a fixed speed (15 r.p.m.). As for the experimental part: as §1
All the mice to be tested were preliminarily trained for 5 minutes on a rod rotating at the rate of 15 revolutions per a minute. The mice that could not remain on the rod without falling off therefrom for a minimum of 2 minutes were excluded from this testing. After the training, all the mice were allowed to rest for 45-60 minutes. Before the administration of the test compounds, the mice were subjected to a further training for one minute on the rod rotating under the same condition, where the mice falling off from the rod were excluded from this experimentation. […] In case a mouse stays on the rod until the test is finished, the time was recorded as 10 minutes. As test time for evaluation, a maximum of 10 minutes was applied. This experimentation was conducted according to the method described in the reference, ‘Yasuda et al. (2005) Antipyretic, analgesic and muscle relaxant activities of Pueraria isoflavonoids and their metabolites from Pueraria lobata Ohwi—a traditional Chinese drug. Biol. Pharm. Bull. 28: 1224-1228’.
as §2
In general terms: Falling from the rotarod earlier than controls is read as motor impairment.

Turning to `COCO[C@@H](c1ccccc1Cl)[C@H](C)OC(N)=O` [Example 1, 1-(2-chlorophenyl)-(S)-1-methoxymethoxypropyl-(S)-2-carbamate], the “MR test (ED50) II = Grip strength” value in the assay on male mice (ICR) [1] is on record as 115.2 mg/kg, bw. In addition, the “MR test (ED50) III = Wire hang” value with male mice (ICR) [2] is 37.0 mg/kg, bw. In addition, in the assay on male mice (ICR) [3], the “MR test (ED50) I = Fixed 15 r.p.m. Rotarod” value is 55.0 mg/kg, bw.

In the case of `COCO[C@H](c1ccccc1I)[C@@H](C)OC(N)=O` [Example 91, 1-(2-iodophenyl)-(R)-1-methoxymethoxypropyl-(R)-2-carbamate], the “MR test (ED50) III = Wire hang” value with male mice (ICR) [2] is 24.4 mg/kg, bw. Moreover, in the assay with male mice (ICR) [3], the “MR test (ED50) I = Fixed 15 r.p.m. Rotarod” value is given as 30.1 mg/kg, bw.

Consider `CO[C@@H](c1ccccc1Cl)[C@H](C)OC(N)=O` [Example 124, 1-(2-chlorophenyl)-(S)-1-methoxypropyl-(S)-2-carbamate], for which, in the assay with male mice (ICR) [1], the “MR test (ED50) II = Grip strength” value is 66.4 mg/kg, bw. In addition, in the assay on male mice (ICR) [2], the “MR test (ED50) III = Wire hang” value is 34.8 mg/kg, bw. Also, the “MR test (ED50) I = Fixed 15 r.p.m. Rotarod” value with male mice (ICR) [3] is 35.9 mg/kg, bw.

Take `CO[C@@H](c1ccccc1F)[C@H](C)OC(N)=O` [Example 135, 1-(2-fluorophenyl)-(S)-1-methoxypropyl-(S)-2-carbamate]: the “MR test (ED50) II = Grip strength” value in the assay on male mice (ICR) [1] is on record as 145.6 mg/kg, bw. The “MR test (ED50) III = Wire hang” value with male mice (ICR) [2] is given as 26.2 mg/kg, bw. Besides, the “MR test (ED50) I = Fixed 15 r.p.m. Rotarod” value in the assay with male mice (ICR) [3] was 60.0 mg/kg, bw.

For `CO[C@@H](c1ccccc1I)[C@H](C)OC(N)=O` [Example 143, 1-(2-iodophenyl)-(S)-1-methoxypropyl-(S)-2-carbamate], the “MR test (ED50) II = Grip strength” value with male mice (ICR) [1] is listed as 61.0 mg/kg, bw. For the same compound, the “MR test (ED50) III = Wire hang” value with male mice (ICR) [2] was 33.5 mg/kg, bw. For the same compound, the “MR test (ED50) I = Fixed 15 r.p.m. Rotarod” value with male mice (ICR) [3] is 13.0 mg/kg, bw.

As for `C[C@H](OC(N)=O)[C@@H](OC(N)=O)c1ccccc1Cl` [Example 247, 1-(2-chlorophenyl)-(S)-1-carbamoyloxypropyl-(S)-2-carbamate], the “MR test (ED50) II = Grip strength” value in the assay with male mice (ICR) [1] was 264.3 mg/kg, bw.

On to `C[C@@H](OC(N)=O)[C@H](OC(N)=O)c1ccccc1Cl` [Example 250, 1-(2-chlorophenyl)-(R)-2-carbamoyloxypropyl-(R)-1-carbamate], for which, in the assay with male mice (ICR) [1], the “MR test (ED50) II = Grip strength” value is 225.6 mg/kg, bw.
